#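 Each compound was tested at five concentrations against cells in 96-well plates for 48 hours. GI50 = concentration required for 50% inhibition of growth. At the TGI there is no net growth.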
# Tests used:
# Experiment in all cases: inhibition of tumour cell growth, NCI panel, 48 h
# [1] = test system: MCF7 breast
# [2] = test system: HOP-62 NSCLC
# [3] = test system: KM12 colon
# [4] = test system: OVCAR-5 ovarian
# [5] = test system: OVCAR-8 ovarian
# [6] = test system: NCI-H460 lung
# [7] = test system: OVCAR-3 ovarian
# [8] = test system: PC-3 prostate
# [9] = test system: NCI-H23 lung
# [10] = test system: 786-0 renal
# [11] = test system: RPMI-8226 leukemia
# [12] = test system: SK-MEL-5 melanoma
# [13] = test system: UO-31 renal
# [14] = test system: RXF 393 renal
# [15] = test system: OVCAR-4 ovarian
# [16] = test system: DU-145 prostate
# [17] = test system: SK-MEL-28 melanoma
# [18] = test system: T-47D breast
# [19] = test system: HCT-116 colon
# [20] = test system: NCI-H226 lung
# [21] = test system: SF-295 CNS
# [22] = test system: LOX IMVI melanoma
# [23] = test system: BT-549 breast
# [24] = test system: HCC-2998 colon
# [25] = test system: SW-620 colon
# [26] = test system: MDA-MB-435
# [27] = test system: A498 renal
# [28] = test system: EKVX NSCLC
# [29] = test system: M14 melanoma
# [30] = test system: MOLT-4 leukemia
# [31] = test system: HL-60(TB) leukemia
# [32] = test system: CAKI-1 renal
# [33] = test system: NCI-H522 lung
# [34] = test system: SF-268 CNS
# [35] = test system: K-562 leukemia
# [36] = test system: SN12C renal
# [37] = test system: COLO 205 colon
# [38] = test system: MALME-3M melanoma
# [39] = test system: ACHN renal
# [40] = test system: SNB-75 CNS
# [41] = test system: NCI/ADR-RES ovarian
# [42] = test system: MDA-MB-231 breast
# [43] = test system: HCT-15 colon
# [44] = test system: UACC-257 melanoma
# [45] = test system: HOP-92 NSCLC
# [46] = test system: TK-10 renal
# [47] = test system: HS 578T breast
# [48] = test system: SK-MEL-2 melanoma
# [49] = test system: CCRF-CEM leukemia
# [50] = test system: SNB-19 CNS
# [51] = test system: U251 CNS
# [52] = test system: HT29 colon
# [53] = test system: SK-OV-3 ovarian
# [54] = test system: A549 NSCLC
# [55] = test system: UACC-62 melanoma
# [56] = test system: IGROV1 ovarian
# [57] = test system: SF-539 CNS
compound,measurement,setting,value
NC(N)=NN=C(c1ccccc1)c1ccccc1,GI50,[1],2.28 µM
same,TGI,[1],41.7 µM
same,GI50,[2],6.75 µM
same,TGI,[2],> 100 µM
same,GI50,[3],2.53 µM
same,TGI,[3],20 µM
same,GI50,[4],7.94 µM
same,TGI,[4],> 100 µM
same,GI50,[5],3.87 µM
same,TGI,[5],39.8 µM
same,GI50,[6],3.51 µM
same,TGI,[6],17.3 µM
same,GI50,[7],2.15 µM
same,TGI,[7],5.49 µM
same,GI50,[8],2.95 µM
same,TGI,[8],> 100 µM
same,GI50,[9],6.04 µM
same,TGI,[9],> 100 µM
same,GI50,[10],4.71 µM
same,TGI,[10],36.2 µM
same,GI50,[11],3.97 µM
same,TGI,[11],17.8 µM
same,GI50,[12],3.06 µM
same,TGI,[12],14.7 µM
same,GI50,[13],4.48 µM
same,TGI,[13],> 100 µM
same,GI50,[14],1.71 µM
same,TGI,[14],3.93 µM
same,GI50,[15],5.16 µM
same,TGI,[15],93.6 µM
same,GI50,[16],3.45 µM
same,TGI,[16],> 100 µM
same,GI50,[17],5.82 µM
same,TGI,[17],36.9 µM
same,GI50,[18],6.65 µM
same,TGI,[18],> 100 µM
same,GI50,[19],3.53 µM
same,TGI,[19],89.7 µM
same,GI50,[20],14.1 µM
same,TGI,[20],> 100 µM
same,GI50,[21],2.9 µM
same,TGI,[21],16 µM
same,GI50,[22],6.09 µM
same,TGI,[22],51.8 µM
same,GI50,[23],5.51 µM
same,TGI,[23],65.3 µM
same,GI50,[24],4.49 µM
same,TGI,[24],20.4 µM
same,GI50,[25],3.63 µM
same,TGI,[25],41.5 µM
same,GI50,[26],0.612 µM
same,TGI,[26],2.94 µM
same,GI50,[27],3.49 µM
same,TGI,[27],> 100 µM
same,GI50,[28],6.82 µM
same,TGI,[28],> 100 µM
same,GI50,[29],2.64 µM
same,TGI,[29],9.3 µM
same,GI50,[30],8.82 µM
same,TGI,[30],91.7 µM
same,GI50,[31],3.11 µM
same,TGI,[31],12.1 µM
same,GI50,[32],3.77 µM
same,TGI,[32],> 100 µM
same,GI50,[33],2.38 µM
same,TGI,[33],8.51 µM
same,GI50,[34],6.8 µM
same,TGI,[34],> 100 µM
same,GI50,[35],4.35 µM
same,TGI,[35],27.5 µM
same,GI50,[36],6.25 µM
same,TGI,[36],> 100 µM
same,GI50,[37],1.91 µM
same,TGI,[37],4.19 µM
same,GI50,[38],2.99 µM
same,TGI,[38],19.1 µM
same,GI50,[39],4.13 µM
same,TGI,[39],> 100 µM
same,GI50,[40],3.49 µM
same,TGI,[40],> 100 µM
same,GI50,[41],19.7 µM
same,TGI,[41],> 100 µM
same,GI50,[42],4.3 µM
same,TGI,[42],40.8 µM
same,GI50,[43],3.25 µM
same,TGI,[43],> 100 µM
same,GI50,[44],9.79 µM
same,TGI,[44],41.9 µM
same,GI50,[45],2.14 µM
same,TGI,[45],55.1 µM
same,GI50,[46],5.75 µM
same,TGI,[46],> 100 µM
same,GI50,[47],1.78 µM
same,TGI,[47],7.91 µM
same,GI50,[48],2.16 µM
same,TGI,[48],13.9 µM
same,GI50,[49],4.38 µM
same,TGI,[49],> 100 µM
same,GI50,[50],7.69 µM
same,TGI,[50],> 100 µM
same,GI50,[51],3.5 µM
same,TGI,[51],24.6 µM
same,GI50,[52],2.89 µM
same,TGI,[52],17.8 µM
same,GI50,[53],3.31 µM
same,TGI,[53],23.7 µM
same,GI50,[54],4.03 µM
same,TGI,[54],> 100 µM
same,GI50,[55],4.64 µM
same,TGI,[55],42.5 µM
same,GI50,[56],4.32 µM
same,TGI,[56],87.6 µM
O=C1/C(=C/c2ccccc2)CN(C(=O)CCN2CCC(=NO)CC2)C/C1=C\c1ccccc1,GI50,[1],0.355 µM
same,TGI,[1],1.98 µM
same,GI50,[2],1.79 µM
same,TGI,[2],3.64 µM
same,GI50,[3],0.663 µM
same,TGI,[3],2.23 µM
same,GI50,[4],1.8 µM
same,TGI,[4],3.58 µM
same,GI50,[5],1.31 µM
same,TGI,[5],3.29 µM
same,GI50,[6],2.43 µM
same,TGI,[6],5.83 µM
same,GI50,[7],1.66 µM
same,TGI,[7],3.15 µM
same,GI50,[8],1.52 µM
same,TGI,[8],3.87 µM
same,GI50,[9],1.89 µM
same,TGI,[9],4.28 µM
same,GI50,[10],1.98 µM
same,TGI,[10],4.51 µM
same,GI50,[11],0.32 µM
same,TGI,[11],1.23 µM
same,GI50,[12],1.64 µM
same,TGI,[12],2.99 µM
same,GI50,[13],1.4 µM
same,TGI,[13],2.71 µM
same,GI50,[14],1.56 µM
same,TGI,[14],2.96 µM
same,GI50,[15],2.15 µM
same,TGI,[15],4.69 µM
same,GI50,[16],1.8 µM
same,TGI,[16],3.27 µM
same,GI50,[17],2.19 µM
same,TGI,[17],5.29 µM
same,GI50,[18],2.68 µM
same,TGI,[18],7.91 µM
same,GI50,[21],2.08 µM
same,TGI,[21],4.64 µM
same,GI50,[22],0.366 µM
same,TGI,[22],1.41 µM
same,GI50,[23],1.63 µM
same,TGI,[23],3.27 µM
same,GI50,[24],1.73 µM
same,TGI,[24],3.32 µM
same,GI50,[25],0.322 µM
same,TGI,[25],1.3 µM
same,GI50,[26],1.42 µM
same,TGI,[26],3.19 µM
same,GI50,[27],1.67 µM
same,TGI,[27],3.9 µM
same,GI50,[28],2.81 µM
same,TGI,[28],9.01 µM
same,GI50,[29],1.5 µM
same,TGI,[29],3.37 µM
same,GI50,[30],0.686 µM
same,TGI,[30],11.3 µM
same,GI50,[31],2.59 µM
same,TGI,[31],8.33 µM
same,GI50,[32],1.61 µM
same,TGI,[32],3.01 µM
same,GI50,[33],1.6 µM
same,TGI,[33],3.36 µM
same,GI50,[35],0.396 µM
same,TGI,[35],> 100 µM
same,GI50,[57],1.91 µM
same,TGI,[57],3.85 µM
same,GI50,[36],1.86 µM
same,TGI,[36],4.03 µM
same,GI50,[37],1.68 µM
same,TGI,[37],3.29 µM
same,GI50,[38],2.01 µM
same,TGI,[38],5.18 µM
same,GI50,[39],1.85 µM
same,TGI,[39],3.91 µM
same,GI50,[40],2.85 µM
same,TGI,[40],11.5 µM
same,GI50,[41],2.49 µM
same,TGI,[41],8.68 µM
same,GI50,[42],1.83 µM
same,TGI,[42],3.47 µM
same,GI50,[43],1.39 µM
same,TGI,[43],3.27 µM
same,GI50,[44],1.92 µM
same,TGI,[44],4.7 µM
same,GI50,[45],2.03 µM
same,TGI,[45],6.4 µM
same,GI50,[46],2.38 µM
same,TGI,[46],7.79 µM
same,GI50,[47],3.09 µM
same,TGI,[47],14.6 µM
same,GI50,[48],4.56 µM
same,TGI,[48],16.2 µM
same,GI50,[49],0.758 µM
same,TGI,[49],9.33 µM
same,GI50,[50],1.83 µM
same,TGI,[50],4.06 µM
same,GI50,[51],1.51 µM
same,TGI,[51],3.49 µM
same,GI50,[52],1.21 µM
same,TGI,[52],3.61 µM
same,GI50,[53],2.51 µM
same,TGI,[53],7.09 µM
same,GI50,[54],3.05 µM
same,GI50,[55],1.7 µM
same,TGI,[55],3.77 µM
same,GI50,[56],1.69 µM
same,TGI,[56],3.35 µM
